Earlier results as cited in patent publication US20130295052A1, “NOVEL CONJUGATES FOR TARGETED DRUG DELIVERY” (priority 2010, published 2013).
Read-outs that look alike come from different tables or passages of the source.

CC(=O)O[C@@]12CO[C@@H]1C[C@H](O)[C@@]1(C)C(=O)[C@H](O)C3=C(C)[C@@H](OC(=O)[C@H](O)[C@@H](NC(=O)OC(C)(C)C)c4ccccc4)C[C@@](O)([C@@H](OC(=O)c4ccccc4)[C@H]21)C3(C)C [Taxotere, Docetaxel]
grade 4 neutropenia (<500 cells/mm3), patients (60 mg/m2): 75% | grade 4 neutropenia (<500 cells/mm3), patients (100 mg/m2): 85% | neutropenia (<2,000 neutrophils/mm3) occurrence (60-100 mg/m2): virtually in all patients
